Measured values published in patent US6737383B1, “Herbicidal oxadiazolidines” (priority 1999, dated 2004).

How the values were obtained:
bedstraw = assay: Test B pre/postemergence bedstraw; format: in vivo, Galium aparine
In short: (§1)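 Response is a visual 0-to-10 score relative to untreated plants, where 0 means no effect and 10 means complete control, taken twelve to sixteen days after application. Treatments went onto soil at planting and onto foliage of 1- to 4-leaf plants, using a surfactant-containing non-phytotoxic solvent.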

blackgrass = assay: Test B pre/postemergence blackgrass; format: in vivo, Alopecurus myosuroides
In short: as §1

surinam grass = assay: Test B pre/postemergence surinam grass; format: in vivo, Brachiaria decumbens
In short: as §1

cocklebur = assay: Test B pre/postemergence cocklebur; format: in vivo, Xanthium strumarium
In short: as §1

corn = assay: Test B pre/postemergence corn; format: in vivo, Zea mays
In short: as §1

crabgrass = assay: Test B pre/postemergence crabgrass; format: in vivo, Digitaria sanguinalis
In short: as §1

giant foxtail = assay: Test B pre/postemergence giant foxtail; format: in vivo, Setaria faberii
In short: as §1

morningglory = assay: Test B pre/postemergence morningglory; format: in vivo, Ipomoea hederacea
In short: as §1

pigweed = assay: Test B pre/postemergence pigweed; format: in vivo, Amaranthus retroflexus
In short: as §1

rape = assay: Test B pre/postemergence rape; format: in vivo, Brassica napus
In short: as §1

soybean = assay: Test B pre/postemergence soybean; format: in vivo, Glycine max
In short: as §1

sugar beet = assay: Test B pre/postemergence sugar beet; format: in vivo, Beta vulgaris
In short: as §1

velvetleaf = assay: Test B pre/postemergence velvetleaf; format: in vivo, Abutilon theophrasti
In short: as §1

wheat = assay: Test B pre/postemergence wheat; format: in vivo, Triticum aestivum
In short: as §1

wild oat = assay: Test B pre/postemergence wild oat; format: in vivo, Avena fatua
In short: as §1

purple nutsedge = assay: Test B pre/postemergence purple nutsedge; format: in vivo, Cyperus rotundus
In short: as §1

[1] = Postemergence, Rate 62 g/ha, scale of 0 to 10, 0 is no effect, 10 is complete control
[2] = Postemergence, Rate 125 g/ha, scale 0 to 10, 0 is no effect, 10 is complete control
[3] = Postemergence, Rate 500 g/ha, scale 0 to 10, 0 is no effect, 10 is complete control
[4] = Preemergence, Rate 62 g/ha, scale of 0 to 10 where 0 is no effect and 10 is complete control
[5] = Preemergence, Rate 125 g/ha, scale 0 to 10, 0 is no effect, 10 is complete control
[6] = Preemergence, Rate 500 g/ha, scale 0 to 10, 0 is no effect, 10 is complete control
[7] = Rate 250 g/ha, Postemergence, scale of 0 to 10 where 0 is no effect and 10 is complete control
[8] = Preemergence, Rate 500 g/ha, scale of 0 to 10 where 0 is no effect and 10 is complete control

## CC(C)N(C(=O)n1oc(=O)n(CCCCF)c1=O)c1ccc(F)cc1F [Compound 522]
bedstraw; [1]
  Bedstraw plant response rating: 0
bedstraw; [2]
  Bedstraw plant response rating: 0
bedstraw; [3]
  Plant response rating, Bedstraw: 10
bedstraw; [4]
  Plant response rating, Bedstraw: 10
bedstraw; [5]
  Bedstraw plant response rating: 10
bedstraw; Preemergence, Rate 250 g/ha
  Bedstraw plant response rating (0 to 10 scale): 10
bedstraw; [6]
  Bedstraw plant response rating: 10
bedstraw; [7]
  Plant response rating, Bedstraw: 9
blackgrass; [1]
  Blackgrass plant response rating: 8
blackgrass; [2]
  Blackgrass plant response rating: 8
blackgrass; [3]
  Plant response rating, Blackgrass: 8
blackgrass; [4]
  Plant response rating, Blackgrass: 4
blackgrass; [5]
  Blackgrass plant response rating: 8
blackgrass; Preemergence, Rate 250 g/ha
  Blackgrass plant response rating (0 to 10 scale): 9
blackgrass; [8]
  Blackgrass plant response rating: 9
blackgrass; [7]
  Plant response rating, Blackgrass: 8
Surinam grass; [1]
  B. signalgrass plant response rating: 0
Surinam grass; [2]
  B. signalgrass plant response rating: 5
Surinam grass; [3]
  Plant response rating, B. signalgrass: 7
Surinam grass; [4]
  Plant response rating, B. signalgrass: 10
Surinam grass; [5]
  B. signalgrass plant response rating: 9
Surinam grass; Preemergence, Rate 250 g/ha
  B. signalgrass plant response rating (0 to 10 scale, 0 is no effect, 10 is complete control): 9
Surinam grass; [6]
  B. signalgrass plant response rating: 9
Surinam grass; [7]
  Plant response rating, B. signalgrass: 7
cocklebur; [1]
  Cocklebur plant response rating: 0
cocklebur; [2]
  Cocklebur plant response rating: 3
cocklebur; [3]
  Plant response rating, Cocklebur: 3
cocklebur; [4]
  Plant response rating, Cocklebur: 0
cocklebur; [5]
  Cocklebur plant response rating: 0
cocklebur; Preemergence, Rate 250 g/ha
  Cocklebur plant response rating (0 to 10 scale): 0
cocklebur; [7]
  Plant response rating, Cocklebur: 3
corn; [1]
  Corn plant response rating: 0
corn; [2]
  Corn plant response rating: 3
corn; [3]
  Plant response rating, Corn: 5
corn; [4]
  Plant response rating, Corn: 2
corn; [5]
  Corn plant response rating: 7
corn; Preemergence, Rate 250 g/ha
  Corn plant response rating (0 to 10 scale): 7
corn; [8]
  Corn plant response rating: 9
corn; [7]
  Plant response rating, Corn: 3
crabgrass; [1]
  Crabgrass plant response rating: 8
crabgrass; [2]
  Crabgrass plant response rating: 8
crabgrass; [3]
  Plant response rating, Crabgrass: 9
crabgrass; [4]
  Plant response rating, Crabgrass: 9
crabgrass; [5]
  Crabgrass plant response rating: 10
crabgrass; Preemergence, Rate 250 g/ha
  Crabgrass plant response rating (0 to 10 scale): 10
crabgrass; [8]
  Crabgrass plant response rating: 10
crabgrass; [7]
  Plant response rating, Crabgrass: 8
Giant foxtail; [1]
  Giant foxtail plant response rating: 8
Giant foxtail; [2]
  Giant foxtail plant response rating: 8
Giant foxtail; [3]
  Plant response rating, Giant foxtail: 9
Giant foxtail; [4]
  Plant response rating, Giant foxtail: 10
Giant foxtail; [5]
  Giant foxtail plant response rating: 10
Giant foxtail; Preemergence, Rate 250 g/ha
  Giant foxtail plant response rating (0 to 10 scale): 10
Giant foxtail; [8]
  Giant foxtail plant response rating: 10
morningglory; [1]
  Morningglory plant response rating: 3
morningglory; [2]
  Morningglory plant response rating: 4
morningglory; [3]
  Plant response rating, Morningglory: 5
morningglory; [4]
  Plant response rating, Morningglory: 0
morningglory; [5]
  Morningglory plant response rating: 2
morningglory; Preemergence, Rate 250 g/ha
  Morningglory plant response rating (0 to 10 scale): 2
morningglory; [8]
  Morningglory plant response rating: 4
morningglory; [7]
  Plant response rating, Morningglory: 4
pigweed; [1]
  Redroot pigweed plant response rating: 0
pigweed; [2]
  Redroot pigweed plant response rating: 4
pigweed; [3]
  Plant response rating, Redroot pigweed: 9
pigweed; [4]
  Plant response rating, Redroot pigweed: 10
pigweed; [5]
  Redroot pigweed plant response rating: 10
pigweed; Preemergence, Rate 250 g/ha
  Redroot pigweed plant response rating (0 to 10 scale): 10
pigweed; [8]
  Redroot pigweed plant response rating: 10
pigweed; [7]
  Plant response rating, Redroot pigweed: 4
rape; [1]
  Rape plant response rating: 0
rape; [2]
  Rape plant response rating: 0
rape; [3]
  Plant response rating, Rape: 9
rape; [4]
  Plant response rating, Rape: 0
rape; [5]
  Rape plant response rating: 2
rape; Preemergence, Rate 250 g/ha
  Rape plant response rating (0 to 10 scale): 4
rape; [8]
  Rape plant response rating: 6
rape; [7]
  Plant response rating, Rape: 0
soybean; [1]
  Soybean plant response rating: 4
soybean; [2]
  Soybean plant response rating: 6
soybean; [3]
  Plant response rating, Soybean: 6
soybean; [4]
  Plant response rating, Soybean: 0
soybean; [5]
  Soybean plant response rating: 0
soybean; Preemergence, Rate 250 g/ha
  Soybean plant response rating (0 to 10 scale): 0
soybean; [8]
  Soybean plant response rating: 10
Sugar beet; [1]
  Sugarbeets plant response rating: 6
Sugar beet; [2]
  Sugarbeets plant response rating: 6
Sugar beet; [3]
  Plant response rating, Sugarbeets: 6
Sugar beet; [4]
  Plant response rating, Sugarbeets: 5
Sugar beet; [5]
  Sugarbeets plant response rating: 5
Sugar beet; Preemergence, Rate 250 g/ha
  Sugarbeets plant response rating (0 to 10 scale): 5
Sugar beet; [8]
  Sugarbeets plant response rating: 7
Sugar beet; [7]
  Plant response rating, Sugarbeets: 6
velvetleaf; [1]
  Velvetleaf plant response rating: 2
velvetleaf; [2]
  Velvetleaf plant response rating: 5
velvetleaf; [3]
  Plant response rating, Velvetleaf: 7
velvetleaf; [4]
  Plant response rating, Velvetleaf: 2
velvetleaf; [5]
  Velvetleaf plant response rating: 6
velvetleaf; Preemergence, Rate 250 g/ha
  Velvetleaf plant response rating (0 to 10 scale): 8
velvetleaf; [8]
  Velvetleaf plant response rating: 9
velvetleaf; [7]
  Plant response rating, Velvetleaf: 7
wheat; [1]
  Wheat plant response rating: 0
wheat; [2]
  Wheat plant response rating: 0
wheat; [3]
  Plant response rating, Wheat: 5
wheat; [4]
  Plant response rating, Wheat: 0
wheat; [5]
  Wheat plant response rating: 0
wheat; Preemergence, Rate 250 g/ha
  Wheat plant response rating (0 to 10 scale): 2
wheat; [8]
  Wheat plant response rating: 8
wheat; [7]
  Plant response rating, Wheat: 5
Wild oat; [1]
  Wild oats plant response rating: 0
Wild oat; [2]
  Wild oats plant response rating: 4
Wild oat; [3]
  Plant response rating, Wild oats: 7
Wild oat; [4]
  Plant response rating, Wild oats: 10
Wild oat; [5]
  Wild oats plant response rating: 2
Wild oat; Preemergence, Rate 250 g/ha
  Wild oats plant response rating (0 to 10 scale): 4
Wild oat; [8]
  Wild oats plant response rating: 9
Wild oat; [7]
  Plant response rating, Wild oats: 7
Purple nutsedge; [1]
  Nutsedge plant response rating: 0
Purple nutsedge; [2]
  Nutsedge plant response rating: 0
Purple nutsedge; [3]
  Plant response rating, Nutsedge: 0
Purple nutsedge; [4]
  Plant response rating, Nutsedge: 0
Purple nutsedge; [5]
  Nutsedge plant response rating: 9
Purple nutsedge; Preemergence, Rate 250 g/ha
  Nutsedge plant response rating (0 to 10 scale): 10
Purple nutsedge; [8]
  Nutsedge plant response rating: 10
Purple nutsedge; [7]
  Plant response rating, Nutsedge: 0
